For data set [1] the following is noted: value taken for the deconvolution technique; cited from earlier work.
Data set [2] concerns platelet aggregations induced by ADP, collagen, epinephrine, adrenaline, thrombin, ristocetine, arachidonic acid. As to the kind of experiment: Human in vivo test, induced platelet aggregations in heavy smokers. As to conditions: two heavy smokers, oral capsules 5 g/day during 7 days. As for the experimental part: This example describes a human in vivo test. Two volunteers (with a weight of about 70-75 kg), considered as heavy smokers (smoking more than 10 cigarettes/day) have orally taken capsules (gastro soluble) containing 5 g anhydrous glycine betaine/day during 7 days. Before administration of the betaine, the aggregations induced by ADP, by collagen, by epinephrine, by adrenaline, by thrombin, by ristocetine and by arachidonic acid were determined. After one week of treatment, the same platelet aggregations were measured. It appeared from said tests that all the induced platelet aggregations were reduced for all said endogenous agonists of at least 30%. Better results are expected when using oral dosage form with controlled release, such as gastro insoluble, but entero soluble form.

In the case of `C[N+](C)(C)CC(=O)O` [Glycine betaine], the Elimination half life in data set [1] is 7.8 h. Further, the “Reduction of induced platelet aggregations (all agonists)” value in data set [2] was “at least 30%”.

These data come from patent US7608640B2, “Glycine betaine and its use” (priority 2001, dated 2009).
